TGI data for 15 compounds are collected here from PubChem BioAssay (NCI).

Some test systems named below: DMS 114 small cell lung; SK-MEL-5 melanoma; RXF-631 renal; UACC-257 melanoma; DMS 273 small cell lung; ACHN renal; KM20L2 colon; SNB-78 CNS; LXFL 529 NSCLC; SK-MEL-2 melanoma; M19-MEL melanoma; DLD-1 colon; HOP-18 NSCLC; XF 498 CNS; DU-145 prostate.
Holding throughout (assay): growth of human tumour cells (NCI), 48 h

Each structure is given as a SMILES string.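 Interpolation was linear, between the two tested concentrations surrounding the appropriate level; five concentrations were tested over 48 hours in 96-well plates. TGI: concentration producing complete growth inhibition.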 *1 amine or outer side, *2 acyl side, *3 side chain or, on linkers, in order; H or OH if unused. Where a SMILES comes first, the peptide text is derived from it. Bridges are numbered along the chain shown (N, C = ends). [ ]: non-standard residue; d: D form. X59 = COc1c(N[*:1])cccc1C(=O)O[C@H](C(=O)[C@H](C)C(=O)[*:2])C(C)C; X58 = CC(C)C[C@H](C(=O)[*:2])C(C)C(=O)C1CCCN1[*:1]; NMeY = CN[C@@H](Cc1ccc(O)cc1)C(=O)O; Lac = C[C@H](O)C(=O)O

Regarding `O=C(Nc1ccccc1[N+](=O)[O-])C(=O)C(C(=O)c1ccccc1-c1ccccc1)C1OC(=O)c2ccccc21` (stereo not drawn), the TGI was 31.7 µM with DMS 114 small cell lung; 32.7 µM in the assay on SK-MEL-5 melanoma; 35.3 µM in the assay on RXF-631 renal; 33 µM in the assay on UACC-257 melanoma; 38.5 µM in the assay with DMS 273 small cell lung; greater than 100 µM with ACHN renal. Besides, the TGI in the assay on KM20L2 colon was 34.9 µM; in the assay with SNB-78 CNS, greater than 100 µM; with LXFL 529 NSCLC, 23 µM; with SK-MEL-2 melanoma, 65.2 µM; in the assay on M19-MEL melanoma, 27.5 µM; in the assay on DLD-1 colon, 44.8 µM. Moreover, the TGI in the assay on HOP-18 NSCLC was 31.6 µM.

For `O=C1COc2cc3c(cc2N1)SCCC(=O)N3`, the TGI in the assay on DMS 114 small cell lung, in the assay with XF 498 CNS, in the assay on SK-MEL-5 melanoma, with RXF-631 renal, in the assay on UACC-257 melanoma and in the assay on DMS 273 small cell lung was greater than 100 µM each time. For the same compound, the TGI in the assay on LXFL 529 NSCLC, in the assay on SK-MEL-2 melanoma, with M19-MEL melanoma, in the assay with DLD-1 colon and in the assay with HOP-18 NSCLC was greater than 100 µM each time.

With `C=CCN(N=O)C(=O)N(CCCCC(NC(C)=O)C(=O)NCc1ccccc1)Cc1ccccc1` (stereo not drawn), the TGI in the assay with DMS 114 small cell lung is 86.4 µM; in the assay with XF 498 CNS it was greater than 100 µM; with SK-MEL-5 melanoma it was 30 µM; with RXF-631 renal, greater than 100 µM; in the assay on UACC-257 melanoma it was greater than 100 µM; with DMS 273 small cell lung, greater than 100 µM. Besides, the TGI is greater than 100 µM in the assay with ACHN renal; 36.7 µM in the assay with KM20L2 colon; greater than 100 µM in the assay with LXFL 529 NSCLC; greater than 100 µM in the assay on SK-MEL-2 melanoma; greater than 100 µM with M19-MEL melanoma; 81.6 µM with HOP-18 NSCLC.

As for `CC(=O)OC1CC2C(C)(C)OC(=O)CC(OC(C)=O)[C@]2(C)C2CCC3(C)C(=CCC3c3ccoc3)[C@]12C` (stereo partly drawn), the TGI is 96.4 µM with DMS 114 small cell lung; 36 µM with XF 498 CNS; greater than 100 µM in the assay on SK-MEL-5 melanoma; 41.1 µM in the assay with DMS 273 small cell lung; greater than 100 µM in the assay with ACHN renal; greater than 100 µM in the assay on KM20L2 colon. For the same compound, the TGI in the assay on SNB-78 CNS is greater than 100 µM; in the assay with LXFL 529 NSCLC, greater than 100 µM; in the assay with SK-MEL-2 melanoma it was 25.1 µM; in the assay on M19-MEL melanoma it was 52.3 µM; with DLD-1 colon it was 31.3 µM.

As to `COc1ccc(C[C@H]2C(=O)O[C@H](C)[C@H](NC(=O)[C@@H](CC(C)C)C(C)C(=O)C3CCCN3C(=O)[C@H](C)O)C(=O)Nc3cccc(c3OC)C(=O)O[C@@H](C(C)C)C(=O)[C@H](C)C(=O)N[C@@H](CC(C)C)C(=O)N3CCC[C@H]3C(=O)N2C)cc1` (stereo partly drawn) (H-[Lac][X58]T[X59]LP[NMeY](Me); ester 3-C), the TGI in the assay on SK-MEL-5 melanoma, with UACC-257 melanoma, in the assay with ACHN renal, in the assay with DU-145 prostate and with SK-MEL-2 melanoma was greater than 12.5 µM in each case.

For `CCN(CC)c1ccc2cc(-c3csc(C)n3)c(=O)oc2c1`, the TGI with SK-MEL-5 melanoma, in the assay with UACC-257 melanoma, in the assay with ACHN renal, in the assay on DU-145 prostate and with SK-MEL-2 melanoma was greater than 100 µM throughout.

Turning to `CC[C@H]1C=CCC[C@@]2(C[C@@H]3CC[C@H]4[C@@H](C(=O)OCCCCCCCCCCCCCCCC(=O)N(CCCNC(C)=O)C[C@H](CCNC(C)=O)OC(C)=O)[C@@]5(CCC[C@@H](C)O5)NC(=[N+]34)N2)O1`, the TGI in the assay with SK-MEL-5 melanoma was 2.57 µM; with UACC-257 melanoma, 2.68 µM; with ACHN renal, 3.3 µM; in the assay with DU-145 prostate, 2.9 µM; with SK-MEL-2 melanoma it was 3.31 µM.

For the compound `CC1CN=C(NS(=O)(=O)c2cc(C(=O)Nc3ccccc3)c(Cl)cc2S)NN1` (stereo not drawn), the TGI in the assay with SK-MEL-5 melanoma is greater than 100 µM; in the assay on UACC-257 melanoma it was greater than 100 µM; in the assay on ACHN renal, greater than 100 µM; in the assay on DU-145 prostate it was greater than 100 µM; in the assay on SK-MEL-2 melanoma, 71.6 µM.

Consider `CN(C(=O)c1cc2c(s1)sc1c(=O)n(C)c3ccccc3c12)c1ccccc1`, for which the TGI was greater than 100 µM in the assay on SK-MEL-5 melanoma; greater than 100 µM in the assay on UACC-257 melanoma; 66.6 µM with ACHN renal; greater than 100 µM in the assay on DU-145 prostate; greater than 100 µM in the assay with SK-MEL-2 melanoma.

`CC1=NN(C(=O)CC(=O)Nc2ccc(Cl)cc2)C(=O)C1N=Nc1ccc(S(=O)(=O)c2ccc(N=NC3C(=O)N(C(=O)CC(=O)Nc4ccc(Cl)cc4)N=C3C)cc2)cc1` (stereo not drawn): the TGI with SK-MEL-5 melanoma, with UACC-257 melanoma, in the assay with ACHN renal, in the assay on DU-145 prostate and in the assay with SK-MEL-2 melanoma was greater than 100 µM throughout.

For the compound `CCOC(=O)C(C)c1nc2cc(C(F)(F)F)ccc2[nH]c1=O` (stereo not drawn), the TGI in the assay on SK-MEL-5 melanoma, in the assay with UACC-257 melanoma, with ACHN renal, in the assay on DU-145 prostate and in the assay with SK-MEL-2 melanoma was greater than 100 µM in each case.

With `CC(C)N(C(=O)C12C3(C(=O)C(C)(C)C)C4C5(C#N)C3C1(C(=O)C(C)(C)C)C5C42C(=O)C(C)(C)C)C(C)C` (stereo not drawn), the TGI in the assay on SK-MEL-5 melanoma, in the assay with UACC-257 melanoma, with ACHN renal, in the assay on DU-145 prostate and with SK-MEL-2 melanoma was greater than 100 µM in each case.

For the compound `C/C(CC(=O)Nc1ccccc1)=N\NC(N)=S`, the TGI in the assay on DMS 114 small cell lung, with XF 498 CNS, in the assay on SK-MEL-5 melanoma, in the assay with UACC-257 melanoma, in the assay with DMS 273 small cell lung and in the assay with KM20L2 colon was greater than 100 µM in each case. Besides, the TGI with SNB-78 CNS, in the assay with LXFL 529 NSCLC, in the assay on SK-MEL-2 melanoma, in the assay with M19-MEL melanoma and in the assay on DLD-1 colon was greater than 100 µM in each case.

On to `O=C(c1ccc(Cl)c(Cl)c1)N(C(=O)N1CCN(c2ccccc2)CC1)S(=O)(=O)c1ccccc1`, for which the TGI in the assay on SK-MEL-5 melanoma is 84.7 µM; in the assay with UACC-257 melanoma it was greater than 100 µM; with ACHN renal, greater than 100 µM; with DU-145 prostate, greater than 100 µM; with SK-MEL-2 melanoma, 48.2 µM.

Turning to `N#CCN1CCN(CC#N)CCN(CC#N)CCN(CC#N)CC1`, the TGI in the assay on SK-MEL-5 melanoma, in the assay on UACC-257 melanoma, in the assay on ACHN renal, in the assay on DU-145 prostate and in the assay on SK-MEL-2 melanoma was greater than 100 µM in each case.
